The structures appear in SMILES notation.

For assay [1], the target named is T1, human TLR7 (hTLR7) (Homo sapiens, UniProt Q9NYK1).
T1 construct: host or cells: HEK-Blue TLR7 cells (engineered human embryonic kidney cells)
T1 sequence (Q9NYK1 27-1049): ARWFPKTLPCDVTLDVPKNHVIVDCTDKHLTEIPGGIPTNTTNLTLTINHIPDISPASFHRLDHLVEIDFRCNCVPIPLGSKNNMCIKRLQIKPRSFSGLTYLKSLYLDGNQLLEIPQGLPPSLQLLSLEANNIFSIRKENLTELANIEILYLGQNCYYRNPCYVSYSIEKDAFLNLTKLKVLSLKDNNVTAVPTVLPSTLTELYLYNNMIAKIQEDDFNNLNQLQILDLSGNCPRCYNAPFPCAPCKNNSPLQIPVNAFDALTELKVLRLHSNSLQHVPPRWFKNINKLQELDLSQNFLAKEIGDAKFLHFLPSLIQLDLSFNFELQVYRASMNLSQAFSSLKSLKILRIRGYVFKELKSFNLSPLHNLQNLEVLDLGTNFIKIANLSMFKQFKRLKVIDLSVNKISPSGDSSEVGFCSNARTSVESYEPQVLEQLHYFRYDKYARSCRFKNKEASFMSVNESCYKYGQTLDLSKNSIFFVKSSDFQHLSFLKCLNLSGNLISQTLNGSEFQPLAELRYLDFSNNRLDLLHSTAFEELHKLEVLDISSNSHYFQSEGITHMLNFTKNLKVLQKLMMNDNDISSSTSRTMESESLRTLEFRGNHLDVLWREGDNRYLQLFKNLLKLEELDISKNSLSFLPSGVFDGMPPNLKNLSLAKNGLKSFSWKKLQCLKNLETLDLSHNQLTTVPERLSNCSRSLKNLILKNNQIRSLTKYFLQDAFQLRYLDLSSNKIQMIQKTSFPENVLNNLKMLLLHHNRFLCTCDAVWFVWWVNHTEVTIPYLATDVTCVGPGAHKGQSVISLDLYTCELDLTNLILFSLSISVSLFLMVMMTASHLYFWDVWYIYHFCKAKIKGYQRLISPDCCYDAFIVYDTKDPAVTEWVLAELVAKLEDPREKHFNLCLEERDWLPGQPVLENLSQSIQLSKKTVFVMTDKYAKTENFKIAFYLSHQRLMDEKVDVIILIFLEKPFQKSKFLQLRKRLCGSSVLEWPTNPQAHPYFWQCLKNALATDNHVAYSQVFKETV
Briefly: Human TLR7 agonist activity assay (HEK-Blue TLR7 SEAP reporter). Particulars: HEK-Blue TLR7 cells, 18 h incubation, Quanti-Blue, OD 620 nm, some values average of multiple measurements. The class given is cell-based. The procedure, abridged:
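HEK-Blue TLR7 cells seeded 16-18 h, then exposed to compound for 18 h at 37 °C, 5% CO2. Secreted SEAP read with Quanti-Blue at OD 620 nm after 30 min. EC50 taken as concentration giving half-maximal response between baseline and maximum; some values averaged over repeats.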

The target of assay [2] is T2, human TLR8 (hTLR8) (Homo sapiens, UniProt Q9NR97).
T2 construct: expressed in transfected cells
T2 sequence (Q9NR97 27-1041): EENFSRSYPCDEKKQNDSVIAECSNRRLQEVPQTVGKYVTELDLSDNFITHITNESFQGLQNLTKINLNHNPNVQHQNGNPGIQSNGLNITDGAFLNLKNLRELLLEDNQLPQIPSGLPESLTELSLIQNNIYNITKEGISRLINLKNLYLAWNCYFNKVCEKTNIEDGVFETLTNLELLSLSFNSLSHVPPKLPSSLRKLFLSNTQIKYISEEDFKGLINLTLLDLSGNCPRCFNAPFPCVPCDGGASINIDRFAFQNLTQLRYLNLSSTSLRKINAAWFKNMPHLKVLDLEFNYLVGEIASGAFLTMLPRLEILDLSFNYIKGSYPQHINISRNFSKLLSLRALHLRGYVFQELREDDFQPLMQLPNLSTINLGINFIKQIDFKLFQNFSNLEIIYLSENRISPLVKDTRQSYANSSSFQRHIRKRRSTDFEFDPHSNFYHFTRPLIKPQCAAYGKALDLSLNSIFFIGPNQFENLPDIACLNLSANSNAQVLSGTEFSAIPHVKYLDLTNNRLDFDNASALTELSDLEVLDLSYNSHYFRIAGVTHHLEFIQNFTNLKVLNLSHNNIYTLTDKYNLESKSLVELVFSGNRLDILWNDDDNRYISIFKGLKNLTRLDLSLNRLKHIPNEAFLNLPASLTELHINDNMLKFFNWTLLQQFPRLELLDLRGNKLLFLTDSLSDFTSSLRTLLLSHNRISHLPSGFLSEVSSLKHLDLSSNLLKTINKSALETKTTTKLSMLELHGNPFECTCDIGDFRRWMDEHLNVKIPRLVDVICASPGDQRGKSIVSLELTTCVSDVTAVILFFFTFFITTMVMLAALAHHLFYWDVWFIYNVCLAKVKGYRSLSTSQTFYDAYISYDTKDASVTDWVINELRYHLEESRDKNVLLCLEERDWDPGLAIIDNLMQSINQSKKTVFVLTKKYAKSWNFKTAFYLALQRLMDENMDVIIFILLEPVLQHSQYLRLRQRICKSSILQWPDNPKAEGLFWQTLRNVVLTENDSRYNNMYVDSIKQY
The experiment in a line: Human TLR8 agonist activity assay (measured in a similar manner). It counts as cell-based. The conditions noted are these: HEK-Blue TLR cells, SEAP reporter, measured in a similar manner to TLR7; some values average of multiple measurements. The procedure, abridged: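 Compounds were added to HEK-Blue TLR8 reporter cells, pre-incubated 16-18 h, then treated 18 h at 37° C, 5% CO2. SEAP output was measured with Quanti-Blue (30 min) at OD 620 nm. Some values are averages of multiple measurements.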

As to `CCCCN(CCO)c1nc(N)nc2cn(Cc3ccc(CN[C@@H]4CCOC4)n4ccnc34)nc12` [Compound 187, (R)-2-((5-Amino-2-((5-(((tetrahydrofuran-3-yl)amino)methyl)imidazo[1,2-a]pyridin-8-yl)methyl)-2H-pyrazolo[4,3-d]pyrimidin-7-yl)(butyl)amino) ethan-1-ol], the concentration giving a half-maximal response (EC50) (commonly the midpoint of the concentration-response curve) in assay [1] is 674 nM; in assay [2], 860 nM.
As to `CCCCN(CCO)c1nc(N)nc2cn(Cc3ccc(CN[C@H]4C[C@H](OC)C4)n4ccnc34)nc12` [Compound 188], the EC50 is 781 nM in assay [1] and 1400 nM in assay [2].
For `CCCCN(CCO)c1nc(N)nc2cn(Cc3ccc(CNC(C)(C)C)n4ncnc34)nc12` [Compound 189, 2-((5-Amino-2-((5-((tert-butylamino)methyl)-[1,2,4]triazolo[1,5-a]pyridin-8-yl)methyl)-2H-pyrazolo[4,3-d]pyrimidin-7-yl)(butyl)amino)ethan-1-ol] the same measures were 793 nM and 570 nM.
As to `CCCCN(CCO)c1nc(N)nc2cn(Cc3c(F)cc(C4=CCC(NC5CCOCC5)CC4)cc3OC)nc12` (centres unmarked) [Compound 190], the 50% effective concentration (EC50) in assay [1] was 563 nM; in assay [2] it was 1680 nM.
Regarding `CCCCN(CCO)c1nc(N)nc2cn(Cc3c(F)cc(C4=CCC(NC5CC6(COC6)C5)CC4)cc3OC)nc12` (centres unmarked) [Compound 192], the half-maximal effective concentration (EC50) in assay [1] was determined as 550 nM; in assay [2], 1600 nM.
For `CCCCN(CCO)c1nc(N)nc2cn(Cc3c(F)cc(C4=CCC(NCCOC)CC4)cc3OC)nc12` (centres unmarked) [Compound 193] the same measures were 333 nM and 1080 nM.
For `CCCCN(CCO)c1nc(N)nc2cn(Cc3c(F)cc(C4=CC[C@@H](NC5CC6(COC6)C5)CC4)cc3OC)nc12` [Compound 194] the same measures were 422 nM and 1130 nM.
For `CCCCN(CCO)c1nc(N)nc2cn(Cc3c(F)cc(C4CCC(N(C)C5CC6(COC6)C5)CC4)cc3OC)nc12` (centres unmarked) [Compound 195] the same measures were 541 nM and 1750 nM.
Take `CCCCN(CCO)c1nc(N)nc2cn(Cc3c(F)cc(C4=CCC(N(CCO)CCO)CC4)cc3OC)nc12` (centres unmarked) [Compound 197]: the concentration for a half-maximal effect (EC50) in assay [1] came out at 570 nM; in assay [2] it was 2740 nM.
Turning to `CCCCN(CCO)c1nc(N)nc2cn(Cc3ccc(CN[C@@H]4CCCN(C(=O)CN)C4)c4cccnc34)nc12` [Compound 198], the results for the EC50 in assay [1] and in assay [2] were 1310 nM and 2270 nM, respectively.
For `CCCCN(CCO)c1nc(N)nc2cn(Cc3c(F)cc(C4CCC(N(C)CCOC)CC4)cc3OC)nc12` (centres unmarked) [Compound 199] the same measures were 274 nM and 1620 nM.
As for `CCCCN(CCO)c1nc(N)nc2cn(Cc3ccc(CN[C@@H]4CCCN(S(C)(=O)=O)C4)c4cccnc34)nc12` [Compound 200, (R)-2-((5-Amino-2-((5-(((1-(methylsulfonyl)piperidin-3-yl)amino)methyl)quinolin-8-yl)methyl)-2H-pyrazolo[4,3-d]pyrimidin-7-yl)(butyl)amino) ethan-1-ol], the EC50 in assay [1] was 301 nM; in assay [2] it was 879 nM.
For `CCCCN(CCO)c1nc(N)nc2cn(Cc3ncc(CNC(C)(C)C)cc3OC)nc12` [Compound 201] the same measures were 1350 nM and 3140 nM.
For `CCCCN(CCO)c1nc(N)nc2cn(Cc3ccc(CNC4CCCOC4)c4scnc34)nc12` (centres unmarked) [Compound 202] the same measures were 614 nM and 725 nM.
For `CCCCN(CCO)c1nc(N)nc2cn(Cc3ccc(CNC4CCOCC4)c4nccnc34)nc12` [Compound 206] the same measures were 1900 nM and 1190 nM.
With `CCCCN(CCO)c1nc(N)nc2cn(Cc3ccc(CNC4CCC4)c4cn[nH]c34)nc12` [Compound 207], the results for the EC50 in assay [1] and in assay [2] were 2380 nM and 1180 nM, respectively.
For the compound `CCCCN(CCO)c1nc(N)nc2cn(Cc3ccc(CNCCOC)c4nccnc34)nc12` [Compound 208], the EC50 turned out to be 1890 nM in assay [1] and 1270 nM in assay [2].
For `CCCCN(CCO)c1nc(N)nc2c(C)n(Cc3ccc(CNC4CCOCC4)cc3OC)nc12` [Compound 212, 2-((5-Amino-2-(2-methoxy-4-(((tetrahydro-2H-pyran-4-yl)amino)methyl)benzyl)-3-methyl-2H-pyrazolo[4,3-d]pyrimidin-7-yl) (butyl)amino) ethan-1-ol] the same measures were 148 nM and 112 nM.
In the case of `CCCCN(CCO)c1nc(N)nc2cn(Cc3ccc(CNC4CCS(=O)(=O)CC4)c4scnc34)nc12` [Compound 213], the EC50 in assay [1] is 396 nM; in assay [2], 677 nM.
